“And” between values parts separate entries of the source, which are not always exact repeats. Equal entries are not always repeated. Where two headings read alike, the source gives them in different places. Marks after values point to notes of the source that are not given here.
Key:
CYP 2C9 = molecular target: T1, CYP 2C9 (Homo sapiens, UniProt P11712); assay: Extracellular Cytochrome P450 inhibition, 2C9; assay type: in vitro ADME; details: diclofenac 4′-hydroxylation
T1 construct: from tissue
Procedure: Aliquots of this mixture to (89 μL) were delivered to each well of a 96-well polypropylene plate which contained an aliquot of inhibitor (1 μL). Final solvent concentrations were 1% (v/v) or less. Incubations were commenced with the addition of 10 μL β-NADPH (10 mM stock) to a final volume of 100 μL. […] Samples were centrifuged, and supernatant was transferred for LC-MS analysis.

[1] = tested on: whole blood ionophore-stimulated leukotriene LTB4; assay: Phase I study, whole blood ionophore-stimulated LTB4; assay type: in vivo, human; details: for Emax / EC50 / EC90: Homo sapiens; for Emax: read-out: Emax (%), maximum inhibition of LTB4; for EC50: read-out: EC50 (ng/mL), concentration at which 50% inhibition was reached; for LTB4 level at t = 24 hrs. (% of baseline): oral solution
Source text: Study Design: Single center, double-blind, randomized, placebo-controlled, single ascending dose followed by multiple ascending dose study.
Sample Size: (1) Single Dose Phase: eight (8) subjects (6 active, 2 placebo) per dose level; up to 5 dose levels are planned (a total of 40 subjects if all 5 dose levels are completed); and (2) Multiple Dose Phase: eight (8) subjects (6 active, 2 placebo) per dose level; up to 4 dose levels are planned (a total of 32 subjects if all 4 dose levels are completed).
Formulations: Compound 2 was supplied as an oral powder for reconstitution. Placebo solution matched. […] The placebo differed only in the absence of the active.
The following dosing cohorts were used:
Routes of Administration: All doses were administered orally with approximately 100 mL of water rinse. Subjects were fasted for at least 8 hours prior to dosing and for 2 hours after dosing. For BID dosing in the Multiple Dose Phase, when applicable, subjects were fasted for at least 2 hours prior to the second daily dose.
Plasma concentrations of Compound 1 were determined using a validated LC/MS method. Whole blood ionophore-stimulated leukotriene LTB4 and urinary LTE4 production were assayed by ELISA and mass spectrometry, respectively.
Analysis of Samples: Concentrations of Compound 1 was determined in plasma samples collected from subjects. Similarly, concentrations of LTB4 in plasma and urinary LTE4 were determined in blood and urine samples collected.

[2] = Thermodynamic Aqueous Solubility by HPLC; assay type: physicochemical; details: water, 25° C., 24 hours
Procedure: Aqueous solubility was determined by suspending sufficient compound in water to give a maximum final concentration of ≧10 mg·ml^−1 of the parent free-form of the compound. The suspension was equilibrated at 25° C. for 24 hours then the pH was measured. The suspension was then filtered through a glass fibre C filter into a 96 well plate. The filtrate was then diluted by a factor of 101. Quantitation was by HPLC with reference to a standard solution of approximately 0.1 mg·ml^−1 in DMSO. Different volumes of the standard, diluted and undiluted sample solutions were injected. The solubility was calculated using the peak areas determined by integration of the peak found at the same retention time as the principal peak in the standard injection.
Analysis was performed on an Agilent HP1100 series system equipped with a diode array detector and using ChemStation software vB.02.01-SR1.

human FLAP = molecular target: T2, human FLAP (Homo sapiens, UniProt P20292); assay: FLAP binding assay; details: individual tests 1-8; read-out: IC50 (nM), Inhibition of FLAP Radioligand Binding
T2 sequence (P20292 1-161): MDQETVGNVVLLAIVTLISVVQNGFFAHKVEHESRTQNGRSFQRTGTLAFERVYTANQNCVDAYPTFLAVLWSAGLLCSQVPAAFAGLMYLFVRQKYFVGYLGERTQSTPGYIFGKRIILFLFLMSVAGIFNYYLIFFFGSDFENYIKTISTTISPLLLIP

Solubility vs. pH = assay type: physicochemical; details: 0.15 M aqueous sodium chloride, saline or isotonic, thermodynamic from solid, 0.15M sodium chloride (aqueous), read-out: Solubility, Concentration
Procedure: Suspensions were made up in 0.15M sodium chloride (aqueous) and the pH adjusted to the appropriate value with either diluted hydrochloric acid or sodium hydroxide, to ensure that different salt forms with different solubilities are not produced in solution. The suspension was then allowed to equilibrate for 2 h, and the pH was checked and re-adjusted if required.
The pH of the resultant solution was measured, and the solubility was calculated by HPLC-UV assay of the compound concentration in solution.

[3] = Multiple dose part, Day 1, 10 mg
[4] = Multiple dose part, Day 1, 50 mg
[5] = Multiple dose part, Day 1, 150 mg
[6] = Multiple dose part, Day 1, 450 mg
[7] = Multiple dose part, Day 11, 10 mg
[8] = Multiple dose part, Day 11, 50 mg
[9] = Multiple dose part, Day 11, 150 mg
[10] = Multiple dose part, Day 11, 450 mg
[11] = Single dose part, Day 1, 600 mg
[12] = Single dose part, Day 1, 1000 mg

T1 sequence (P11712 whole entry): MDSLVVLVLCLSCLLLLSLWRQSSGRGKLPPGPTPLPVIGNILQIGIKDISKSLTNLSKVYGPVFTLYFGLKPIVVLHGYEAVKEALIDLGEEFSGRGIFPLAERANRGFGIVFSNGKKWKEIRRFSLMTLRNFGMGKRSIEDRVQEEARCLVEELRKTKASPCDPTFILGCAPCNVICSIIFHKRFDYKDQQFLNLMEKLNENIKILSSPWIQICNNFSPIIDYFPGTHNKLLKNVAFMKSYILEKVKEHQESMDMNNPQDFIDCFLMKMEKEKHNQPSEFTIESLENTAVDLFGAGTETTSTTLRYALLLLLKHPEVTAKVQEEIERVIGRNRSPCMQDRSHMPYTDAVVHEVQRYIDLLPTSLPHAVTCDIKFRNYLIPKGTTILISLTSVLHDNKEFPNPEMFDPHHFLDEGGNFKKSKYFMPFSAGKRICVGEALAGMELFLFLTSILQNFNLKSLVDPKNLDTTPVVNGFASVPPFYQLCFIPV

- IC50 (CYP 2C9): > 50000 nM
- EC50 ([1]; 24 h, Multiple dose part, Day 1, Multiple dose total): 51 ng/mL
- EC50 ([1]; 24 h, Single dose part, Day 1, Single dose total): 90 ng/mL
- EC90 ([1]; 24 h, read-out: EC90 (ng/mL), concentration at which 90% inhibition was reached, Multiple dose part, Day 1, Multiple dose total): 296 ng/mL
- EC90 ([1]; 24 h, read-out: EC90 (ng/mL), concentration at which 90% inhibition was reached, Single dose part, Day 1, Single dose total): 342 ng/mL
- EC50 ([1]; 264 h, Multiple dose part, Day 11, Multiple dose total): 52 ng/mL
- EC90 ([1]; 264 h, read-out: EC90 (ng/mL), concentration at which 90% inhibition was reached, Multiple dose part, Day 11, Multiple dose total): 308 ng/mL
- Concentration of filtrate (as mg/mL of free base) [2]: greater than 10 mg/mL
- pH of unfiltered saturated solution [2]: above 9
- IC50 (human FLAP): 4.9 nM and 4.1 nM and 1.8 nM
- solubility at 2 h (Solubility vs. pH; pH 1.1): 26 µg/mL
- solubility at 2 h (Solubility vs. pH; pH 3.8): < 0.1 µg/mL
- solubility at 2 h (Solubility vs. pH; pH 6.9): 0.7 µg/mL
- solubility at 2 h (Solubility vs. pH; pH 9.0): 3500 µg/mL
- solubility at 2 h (Solubility vs. pH; pH 9.8): > 10000 µg/mL
- solubility at 2 h (Solubility vs. pH; pH 11.2): > 10000 µg/mL
SMILES: CCOc1ccc(-c2ccc(Cn3c(CC(C)(C)C(=O)[O-])c(SC(C)(C)C)c4cc(OCc5ccc(C)cn5)ccc43)cc2)cn1.[Na+] [Compound 2, sodium 3-[3-(tert-butylsulfanyl)-1-[4-(6-ethoxy-pyridin-3-yl)benzyl]-5-(5-methyl-pyridin-2-yl-methoxy)-1H-indol-2-yl]-2,2-dimethylpropionate]
- Emax ([1]; 24 h, Multiple dose part, Day 1, 10 mg): 60.8%
- Emax ([1]; 24 h, Multiple dose part, Day 1, 50 mg): 89.6%
- Emax ([1]; 24 h, Multiple dose part, Day 1, 150 mg): 98.5%
- Emax ([1]; 24 h, Multiple dose part, Day 1, 450 mg): 97.6%
- Emax ([1]; 24 h, Single dose part, Day 1, 50 mg): 87.9%
- Emax ([1]; 24 h, Single dose part, Day 1, 150 mg): 98.8%
- Emax ([1]; 24 h, Single dose part, Day 1, 300 mg): 102%
- Emax ([1]; 24 h, Single dose part, Day 1, 600 mg): 100%
- Emax ([1]; 24 h, Single dose part, Day 1, 1000 mg): 99.6%
- Emax ([1]; 264 h, Multiple dose part, Day 11, 10 mg): 74.4%
- Emax ([1]; 264 h, Multiple dose part, Day 11, 50 mg): 97.9%
- Emax ([1]; 264 h, Multiple dose part, Day 11, 150 mg): 99.7%
- Emax ([1]; 264 h, Multiple dose part, Day 11, 450 mg): 101%
- Tmax (h), time to reach Emax [1, 3]: 12.00 h
- tE>90% (h), time above 90% LTB4 inhibition [1, 3]: 0.0 h
- Tmax (h), time to reach Emax [1, 4]: 4.00 h
- tE>50% (h), time above 50% LTB4 inhibition [1, 4]: >23.3 h
- tE>90% (h), time above 90% LTB4 inhibition [1, 4]: 0.0 h
- Tmax (h), time to reach Emax [1, 5]: 3.00 h
- tE>50% (h), time above 50% LTB4 inhibition [1, 5]: >23.4 h
- Tmax (h), time to reach Emax [1, 6]: 3.00 h
- tE>50% (h), time above 50% LTB4 inhibition [1, 6]: >23.7 h
- Tmax (h), time to reach Emax [1, 7]: 12.00 h
- tE>90% (h), time above 90% LTB4 inhibition [1, 7]: 0.0 h
- Tmax (h), time to reach Emax [1, 8]: 4.00 h
- tE>90% (h), time above 90% LTB4 inhibition [1, 8]: 10.0 h
- Tmax (h), time to reach Emax [1, 9]: 2.00 h
- tE>50% (h), time above 50% LTB4 inhibition [1, 9]: >72.0 h
- Tmax (h), time to reach Emax [1, 10]: 2.00 h
- tE>50% (h), time above 50% LTB4 inhibition [1, 10]: >72.0 h
- Tmax (h), time to reach Emax ([1]; Single dose part, Day 1, 50 mg): 8.00 h
- tE>90% (h), time above 90% LTB4 inhibition ([1]; Single dose part, Day 1, 50 mg): 0.0 h
- Tmax (h), time to reach Emax ([1]; Single dose part, Day 1, 150 mg): 6.00 h
- Tmax (h), time to reach Emax ([1]; Single dose part, Day 1, 300 mg): 8.00 h
- tE>50% (h), time above 50% LTB4 inhibition ([1]; Single dose part, Day 1, 300 mg, estimated): ~30^# h
- Tmax (h), time to reach Emax [1, 11]: 6.00 h
- tE>50% (h), time above 50% LTB4 inhibition [1, 11]: >71.7 h
- Tmax (h), time to reach Emax [1, 12]: 6.00 h
- tE>50% (h), time above 50% LTB4 inhibition [1, 12]: >71.7 h
- LTB4 level at t = 24 hrs. (% of baseline) ([1]; single dose 50 mg): 37 ± 4.7 % of baseline
- LTB4 level at t = 24 hrs. (% of baseline) ([1]; single dose 150 mg): 24 ± 4.4 % of baseline
- LTB4 level at t = 24 hrs. (% of baseline) ([1]; single dose 300 mg): 23 ± 8.3 % of baseline
- LTB4 level at t = 24 hrs. (% of baseline) ([1]; single dose 600 mg): 1.6 ± 0.98 % of baseline
- LTB4 level at t = 24 hrs. (% of baseline) ([1]; single dose 1000 mg): 1.9 ± 0.41 % of baseline
